Tests used:
Conditions in all cases: 72 h
KCL-22 [1] = assay: cell viability (% survival relative to DMSO control, bortezomib = 0%); higher = less cytotoxic
How it was run: (§1)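 Fifteen myeloid leukaemia cell lines (10 AML, 5 CML) were seeded at a density titrated to the linear growth range. They went into 384-well plates with compounds pre-printed at 1, 10, 100, 1000 or 10000 nM in duplicate. After 72 h at 37 °C with 5% CO2, viability was read by CellTiter-Glo luminescence. Values are percent survival, with vehicle set to 100% and a 10 µM positive control to 0%, averaged over the duplicates.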

K-562 [2] = assay: as above
How it was run: as §1

LAMA-84 [3] = assay: as above
How it was run: as §1

MV4-11 [4] = assay: as above
How it was run: as §1

MOLM-13 [5] = assay: as above
How it was run: as §1

HL-60 [6] = assay: as above
How it was run: as §1

SHI-1 [7] = assay: as above
How it was run: as §1

KG-1 [8] = assay: as above
How it was run: as §1

ML-2 [9] = assay: as above
How it was run: as §1

HEL [10] = assay: as above
How it was run: as §1

BV-173 [11] = assay: as above
How it was run: as §1

KCL-22 [12] = system: KCL-22
How it was run: (§2)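 For the IC50, dose–response curves were fitted with a log-logistic model. The data came from fifteen myeloid leukaemia cell lines grown in RPMI 1640 at densities in the linear growth range and incubated in 384-well plates for 72 h at 37 °C under 5% CO2. Doses were five tenfold steps from 1 to 10,000 nM in duplicate, and luminescent ATP viability was normalised to vehicle and to a positive control at 10 µM before four-parameter fitting.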

NOMO-1 = system: NOMO-1
How it was run: as §2

K-562 [13] = system: K-562
How it was run: as §2

LAMA-84 [14] = system: LAMA-84
How it was run: as §2

KU-812 = system: KU-812
How it was run: as §2

THP-1 = system: THP-1
How it was run: as §2

MV4-11 [15] = system: MV4-11
How it was run: as §2

MOLM-13 [16] = system: MOLM-13
How it was run: as §2

Mono-Mac-6 = system: Mono-Mac-6
How it was run: as §2

HL-60 [17] = system: HL-60
How it was run: as §2

SHI-1 [18] = system: SHI-1
How it was run: as §2

KG-1 [19] = system: KG-1
How it was run: as §2

ML-2 [20] = system: ML-2
How it was run: as §2

HEL [21] = system: HEL
How it was run: as §2

BV-173 [22] = system: BV-173
How it was run: as §2

HL-60 [23] = assay: cell viability (% survival relative to DMSO control); higher = less cytotoxic
How it was run: (§3)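 Four-parameter log-logistic fits in drc and PharmacoGx supplied area under the curve where it is given. Underlying viability came from CellTiter-Glo, normalised to DMSO and proteasome-inhibitor wells, with the proteasome inhibitor at 10 μM. HL-60 cells in RPMI 1640 plus 10% FBS had been rescreened against the full library at five tenfold concentrations of 1–10,000 nM, in duplicate on 384-well plates, with DMSO or 100 nM of one of three metabolic inhibitors, for 72 h at 37 °C, 5% CO2.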

HL-60 [24] = assay: area under dose-response curve (viability, 1 nM-10 uM) (fraction (0-1)); higher = more sensitive
How it was run: as §3

CN(C)C(=O)n1nnnc1Cc1ccc(-c2ccccc2)cc1
Conditions | area under dose-response curve, co-treatment: AZD3965 100 nM | area under dose-response curve, co-treatment: DMSO vehicle | area under dose-response curve, co-treatment: GSK2194069 100 nM | area under dose-response curve, co-treatment: pictilisib 100 nM | cell viability, 1 nM [%] | cell viability, 10 nM [%] | cell viability, 100 nM [%] | cell viability, 1000 nM [%] | cell viability, 10000 nM [%]
BV-173 [11] | – | – | – | – | 96.6 | 110 | 98.1 | 13.7 | 0.269
HEL [10] | – | – | – | – | 101 | 112 | 102 | 87.1 | 1.09
HL-60 [6] | – | – | – | – | 114 | 136 | 106 | 108 | 2.17
HL-60 [24] | 0.113 | 0.116 | 0.108 | 0.116 | – | – | – | – | –
K-562 [2] | – | – | – | – | 100 | 111 | 112 | 78.1 | 4.59
KCL-22 [1] | – | – | – | – | 94.6 | 109 | 101 | 95 | 0.732
KG-1 [8] | – | – | – | – | 93.7 | 108 | 104 | 60.6 | 8.52
LAMA-84 [3] | – | – | – | – | 83 | 109 | 103 | 85.5 | 3.4
ML-2 [9] | – | – | – | – | 101 | 112 | 114 | 69.2 | 3.07
MOLM-13 [5] | – | – | – | – | 99 | 122 | 115 | 104 | 0.746
MV4-11 [4] | – | – | – | – | 98.3 | 114 | 89.2 | 76.4 | 0.0147
SHI-1 [7] | – | – | – | – | 97.5 | 116 | 125 | 112 | 1.4

Conditions | IC50 (cell viability) [µM]
BV-173 [22] | 0.422
HEL [21] | 2.41
HL-60 [17] | 3.63
K-562 [13] | 1.88
KCL-22 [12] | 2.92
KG-1 [19] | 1.17
KU-812 | 1.89
LAMA-84 [14] | 2.45
ML-2 [20] | 1.5
MOLM-13 [16] | 3.38
MV4-11 [15] | 1.77
Mono-Mac-6 | 2.48
NOMO-1 | 4.43
SHI-1 [18] | 3.74
THP-1 | 1.74

cell viability [%], HL-60 [23]
Conditions | 0.001 µM | 0.01 µM | 0.1 µM | 1 µM | 10 µM
co-treatment: AZD3965 100 nM | 91.3 | 99.6 | 103 | 105 | 6.18
co-treatment: DMSO vehicle | 97.5 | 99.54 | 101 | 101.1 | 6.81
co-treatment: GSK2194069 100 nM | 101 | 96.8 | 104 | 109 | 6.62
co-treatment: pictilisib 100 nM | 96.2 | 93.4 | 100 | 104 | 5

Cc1[nH]n(-c2ccccc2)c(=O)c1C1(C(F)(F)F)C(=O)N(c2ccccc2)C2=C1C(=O)CC(C)(C)C2 (stereo not drawn)
Conditions | area under dose-response curve, co-treatment: AZD3965 100 nM | area under dose-response curve, co-treatment: DMSO vehicle | area under dose-response curve, co-treatment: GSK2194069 100 nM | area under dose-response curve, co-treatment: pictilisib 100 nM | cell viability, 1 nM [%] | cell viability, 10 nM [%] | cell viability, 100 nM [%] | cell viability, 1000 nM [%] | cell viability, 10000 nM [%]
BV-173 [11] | – | – | – | – | 103 | 89.2 | 128 | 99.8 | 111
HEL [10] | – | – | – | – | 94.3 | 104 | 108 | 90.8 | 90.9
HL-60 [6] | – | – | – | – | 121 | 120 | 104 | 77.6 | 103
HL-60 [24] | < 0.0301 | < 0.0301 | < 0.0301 | < 0.0301 | – | – | – | – | –
K-562 [2] | – | – | – | – | 89.6 | 100 | 103 | 108 | 97.3
KCL-22 [1] | – | – | – | – | 84.5 | 140 | 99.2 | 108 | 103
KG-1 [8] | – | – | – | – | 96.7 | 97.6 | 97.8 | 93.7 | 107
LAMA-84 [3] | – | – | – | – | 106 | 92.6 | 99.9 | 110 | 92.4
ML-2 [9] | – | – | – | – | 98.6 | 87.9 | 115 | 101 | 99.8
MOLM-13 [5] | – | – | – | – | 91.4 | 114 | 98.5 | 100 | 99.8
MV4-11 [4] | – | – | – | – | 105 | 104 | 99.4 | 97.1 | 96.4
SHI-1 [7] | – | – | – | – | 101 | 109 | 109 | 108 | 104

Conditions | IC50 (cell viability) [µM]
BV-173 [22] | > 10
HEL [21] | > 10
HL-60 [17] | > 10
K-562 [13] | > 10
KCL-22 [12] | > 10
KG-1 [19] | > 10
KU-812 | > 10
LAMA-84 [14] | > 10
ML-2 [20] | > 10
MOLM-13 [16] | > 10
MV4-11 [15] | > 10
Mono-Mac-6 | > 10
NOMO-1 | > 10
SHI-1 [18] | > 10
THP-1 | > 10

cell viability [%], HL-60 [23]
Conditions | 0.001 µM | 0.01 µM | 0.1 µM | 1 µM | 10 µM
co-treatment: AZD3965 100 nM | 101.7 | 100.9 | 107 | 98.5 | 102
co-treatment: DMSO vehicle | 99.8 | 100 | 102 | 102 | 102
co-treatment: GSK2194069 100 nM | 98.536 | 106 | 105 | 100.4 | 97.8
co-treatment: pictilisib 100 nM | 97.2 | 95.5 | 101 | 102 | 104

— the supplement of paper PMC8671470
